Measurements as given in patent US3984411A, “Pyrimidines” (Societe Generale de Recherches et d'Applications …, priority 1975, dated 1976).
Where a name gives a salt, the structure may show the parent alone. Read-outs that look alike come from different tables or passages of the source.

What was measured:
[1] = system: mice CD 1 (Charles RIVER); experiment: Toxicity (LD 50) in mice by intravenous and oral application; format: in vivo; conditions: mice CD 1, oral; cumulative quantal method
Description: (§1) The toxicities of the compounds according to the invention have been determined on mice CD 1 (Charles RIVER) by intravenous and oral applications. The LD 50, calculated by the cumulative quantal method of J. J. Reed and H. Muench, Am.

cholesterolemia = experiment: Hypocholesterolemiant effect in the rat, oral, 4 days treatment; format: in vivo, rat CD (Charles RIVER); conditions: for hypocholesterolemiant activities (in words): oral, 4 days
Experimental: The hypocholesterolemiant effects of the products according to the invention have been studied on the rat CD (Charles RIVER) by oral application. The animals, divided into groups of 10, are treated daily by gastric probe for 4 consecutive days. Four hours after the last administration, the rats are killed and their blood is collected in order to proceed to the determination of the amount of cholesterol according to the method of J. Levine and B. Zak, Clin. Acta, 10, 381 (1964).
The activity of the substances is evaluated by calculating the percentage variation of the average amount of cholesterol of the animals treated with respect to that of the control animals. Then the statistical significance of the differences observed is determined by application of the STUDENT test.

[2] = Toxicity (LD 50) in mice by intravenous and oral application; format: in vivo; conditions: mouse, in vivo, cumulative quantal method
Description: as §1

glycemia = experiment: Hypoglycemiant effect in the rat, oral, 4 days treatment; format: in vivo, male rat CD (Charles RIVER); conditions: for hypoglycemiant effects (in words): oral, 4 days
Experimental: The hypoglycemiant properties have been studied on the male rat CD (Charles RIVER) of 200-250 g, of which the glycemia is controlled after 4 days of daily treatment by oral application. The serum glucose is determined by the method of W. S. Hoffman, J. Biol. Chem., 120, 51 (1937). Groups of 10 rats are used and the hypoglycemiant activity is expressed by the percentage variation of the average glycemia of the treated animals compared with that of the controls. The statistical significance of the differences observed is determined by application of the STUDENT test.

[3] = 50 mg/kg taken orally, all values significant at p = 0.001
[4] = 100 mg/kg taken orally, significant at p = 0.001, except Example 18 at p = 0.05
[5] = mice CD 1, intravenous, read-out: Intense toxicities to mice (LD 50), intravenous
[6] = mice CD 1, oral, read-out: Intense toxicities to mice (LD 50), oral
[7] = 300 mg/kg taken orally, significant at p = 0.001
[8] = 100 mg/kg taken orally, significant at p = 0.001

Structure (SMILES): CN1CCC(Oc2nc(N3CCOCC3)nc(OC3CCN(C)CC3)c2Cl)CC1 [Example 22, 2-morpholino-4,6-di[(N-methyl-4'-piperidyl)oxy]-5-chloro-pyrimidine]
- Intense toxicities to mice (LD 50), oral [1]: atoxic at 900
- Variation of the cholesterolemia in % with respect to the controls after 4 days treatment (cholesterolemia; [3]): -19%
- Variation of the cholesterolemia in % with respect to the controls after 4 days treatment (cholesterolemia; [4]): -45%
- hypocholesterolemiant activities (in words) (cholesterolemia): remarkable hypocholesterolemiant activities

Structure (SMILES): COc1c(OC2CCN(C)CC2)nc(N2CCOCC2)nc1OC1CCN(C)CC1 [Example 14, 2-morpholino-4,6-di[(N-methyl-4'-piperidyl)oxy]-5-methoxy-pyrimidine]
- LD50 [2, 5]: 67 mg/kg
- Intense toxicities to mice (LD 50), oral [1]: atoxic at 900
- Percentage variation of the glycemia compared with the controls after 4 days treament (glycemia; 200 mg/kg taken orally, significant at p = 0.001): -24%

Structure (SMILES): CN1CCC(Oc2nc(N3CCOCC3)nc(OC3CCN(C)CC3)c2Oc2ccc(Cl)cc2)CC1 [Example 20, 2-morpholino-4,6-di[(N-methyl-4'-piperidyl)oxy]-5-p-chlorophenoxy-pyrimidine]
- LD50 [2, 6]: > 900 mg/kg
- Percentage variation of the glycemia compared with the controls after 4 days treament (glycemia; [7]): -27%
- hypoglycemiant effects (in words) (glycemia): especially large hypoglycemiant effects
- Variation of the cholesterolemia in % with respect to the controls after 4 days treatment (cholesterolemia; [4]): -47%
- hypocholesterolemiant activities (in words) (cholesterolemia): remarkable hypocholesterolemiant activities

Structure (SMILES): CCOc1c(OC2CCN(C)CC2)nc(N2CCOCC2)nc1OC1CCN(C)CC1 [Example 19, 2-morpholino-4,6-di[(N-methyl-4'-piperidyl)oxy]-5-ethoxy-pyrimidine dihydrochloride]
- LD50 [2, 5]: 70 mg/kg
- LD50 [2, 6]: ~600 mg/kg
- Percentage variation of the glycemia compared with the controls after 4 days treament (glycemia; [7]): -43%
- hypoglycemiant effects (in words) (glycemia): especially large hypoglycemiant effects

Structure (SMILES): CN1CCC(Oc2cc(OC3CCN(C)CC3)nc(N3CCOCC3)n2)CC1 [Example 23, 2-morpholino-4,6-di[(N-methyl-4'-piperidyl)oxy]-pyrimidine]
- Intense toxicities to mice (LD 50), oral [1]: atoxic at 900
- Percentage variation of the glycemia compared with the controls after 4 days treament (glycemia; 400 mg/kg taken orally, significant at p = 0.001): -20%

Structure (SMILES): CN1CCC(Oc2nc(N3CCOCC3)nc(OC3CCN(C)CC3)c2-c2ccc(Cl)cc2)CC1 [Example 18, 2-morpholino-4,6-di[(N-methyl-4'-piperidyl)oxy]-5-p-chlorophenyl-pyrimidine]
- LD50 [2, 5]: 20 mg/kg
- LD50 [2, 6]: ~600 mg/kg
- Percentage variation of the glycemia compared with the controls after 4 days treament (glycemia; [8]): -29%
- Percentage variation of the glycemia compared with the controls after 4 days treament (glycemia; [7]): -35%
- hypoglycemiant effects (in words) (glycemia): especially large hypoglycemiant effects
- Variation of the cholesterolemia in % with respect to the controls after 4 days treatment (cholesterolemia; [4]): -14%
- Variation of the cholesterolemia in % with respect to the controls after 4 days treatment (cholesterolemia; [7]): -44%

Structure (SMILES): Cc1c(OC2CCN(C)CC2)nc(N2CCOCC2)nc1OC1CCN(C)CC1 [Example 15, 2-moropholino-4,6-di[(N-methyl-4'-piperidyl)oxy]-5-methyl-pyrimidine]
- LD50 [2, 5]: 81 mg/kg
- Intense toxicities to mice (LD 50), oral [1]: atoxic at 900
- Percentage variation of the glycemia compared with the controls after 4 days treament (glycemia; 50 mg/kg taken orally, significant at p = 0.05): -12%
- Variation of the cholesterolemia in % with respect to the controls after 4 days treatment (cholesterolemia; [3]): -31%
- hypocholesterolemiant activities (in words) (cholesterolemia): remarkable hypocholesterolemiant activities

Structure (SMILES): CCCCc1c(OC2CCN(C)CC2)nc(N2CCOCC2)nc1OC1CCN(C)CC1 [Example 17, 2-morpholino-4,6-di[(N-methyl-4'-piperidyl)oxy]-5-n-butyl-pyrimidine dihydrochloride]
- LD50 [2, 6]: ~225 mg/kg
- Variation of the cholesterolemia in % with respect to the controls after 4 days treatment (cholesterolemia; [4]): -36%

Structure (SMILES): CCc1c(OC2CCN(C)CC2)nc(N2CCOCC2)nc1OC1CCN(C)CC1 [Example 16, 2-morpholino-4,6-di[(N-methyl-4'-piperidyl)oxy]-5-ethyl-pyrimidine dihydrobromide]
- LD50 [2, 5]: 54 mg/kg
- LD50 [2, 6]: ~525 mg/kg
- Variation of the cholesterolemia in % with respect to the controls after 4 days treatment (cholesterolemia; [4]): -60%
- hypocholesterolemiant activities (in words) (cholesterolemia): remarkable hypocholesterolemiant activities

Structure (SMILES): CN1CCC(Oc2nc(N3CCOCC3)nc(OC3CCN(C)CC3)c2Cc2ccccc2)CC1 [Example 21, 2-morpholino-4,6-di[(N-methyl-4'-piperidyl)oxy]-5-benzyl-pyrimidine]
- LD50 [2, 5]: 40 mg/kg
- LD50 [2, 6]: ~800 mg/kg
- Percentage variation of the glycemia compared with the controls after 4 days treament (glycemia; [8]): -27%
- hypoglycemiant effects (in words) (glycemia): especially large hypoglycemiant effects
- Variation of the cholesterolemia in % with respect to the controls after 4 days treatment (cholesterolemia; [4]): -39%
